One experiment addresses HIS-AXL 473-End (Homo sapiens (Human), UniProt P30530). The experiment in a line: AXL kinase homogeneous time resolved fluorescence (HTRF) binding assay. To be noted: 1 nM kinase, fluorescein-labeled kinase tracer at Kd, 60 minutes at room temperature. As for the experimental part:
(§1) MERTK, AXL, TYRO3 Kinase Homogeneous Time Resolved Fluorescence (HTRF) Assay
(§2) Assays were performed in black, flat-bottom, 1536-well plates. The reactions were incubated at room temperature for 60 minutes, following which the HTRF signals, ratio of fluorescence intensities at emission wavelengths for fluorescein acceptor (520 nm) and terbium donor (495 nm), the 520/495 ratio, were measured on the Envision Plate reader. Inhibition data were calculated from the 520/495 ratio generated by the no protein control reactions for 100% inhibition and vehicle-only reactions for 0% inhibition, and dose response curves generated to determine the concentration required for inhibiting 50% of the HTRF signal (IC50). Compounds were dissolved at 10 mM in dimethylsulfoxide (DMSO) and evaluated at eleven concentrations.
(In general: TR-FRET usually uses a lanthanide donor and a delayed reading to cut background.)

A further experiment addresses GST-MERTK 578-872 (Homo sapiens (Human), UniProt Q12866). The experiment in a line: MERTK kinase homogeneous time resolved fluorescence (HTRF) binding assay. As to conditions: 1 nM kinase, fluorescein-labeled kinase tracer at Kd, 60 minutes at room temperature; read-out: Mer HTRF IC50. As for the experimental part: as §1, §2

One may read the IC50 as the point on the concentration scale where inhibition reaches its midpoint.

Sequence of HIS-AXL 473-End (P30530 473-894): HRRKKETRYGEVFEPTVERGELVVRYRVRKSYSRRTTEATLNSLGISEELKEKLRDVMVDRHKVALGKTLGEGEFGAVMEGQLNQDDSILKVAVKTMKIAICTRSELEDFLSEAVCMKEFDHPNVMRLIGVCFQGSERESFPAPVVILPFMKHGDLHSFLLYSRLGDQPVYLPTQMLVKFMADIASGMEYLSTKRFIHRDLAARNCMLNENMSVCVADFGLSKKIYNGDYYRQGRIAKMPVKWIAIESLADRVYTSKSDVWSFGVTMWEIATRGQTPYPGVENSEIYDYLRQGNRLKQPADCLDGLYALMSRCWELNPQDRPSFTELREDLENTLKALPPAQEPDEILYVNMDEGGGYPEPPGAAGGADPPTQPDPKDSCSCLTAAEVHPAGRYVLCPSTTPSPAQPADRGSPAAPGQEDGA
Sequence of GST-MERTK 578-872 (Q12866 578-872): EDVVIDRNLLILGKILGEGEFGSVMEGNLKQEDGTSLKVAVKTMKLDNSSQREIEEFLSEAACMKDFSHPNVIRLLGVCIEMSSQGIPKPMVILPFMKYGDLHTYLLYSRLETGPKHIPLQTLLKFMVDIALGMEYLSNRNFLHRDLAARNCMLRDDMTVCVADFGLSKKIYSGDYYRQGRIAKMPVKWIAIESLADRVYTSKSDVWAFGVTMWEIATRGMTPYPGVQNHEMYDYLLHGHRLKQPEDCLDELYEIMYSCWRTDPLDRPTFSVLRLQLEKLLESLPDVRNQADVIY

For `CC(C)n1cc(C(=O)Nc2ccc(Oc3ccnc(Nc4ccc(C#N)cn4)c3)c(F)c2)c(=O)n(-c2ccc(F)cc2)c1=O` [Example 1, N-[4-({2-[(5-cyanopyridin-2-yl)amino]pyridin-4-yl}oxy)-3-fluorophenyl]-3-(4-fluorophenyl)-2,4-dioxo-1-(propan-2-yl)-1,2,3,4-tetrahydropyrimidine-5-carboxamide], the IC50 at HIS-AXL 473-End was 2.9 nM; on GST-MERTK 578-872, 14 nM.
Regarding `CC(C)n1cc(C(=O)Nc2ccc(Oc3ccnc(Nc4ncc(Cl)cc4F)c3)c(F)c2)c(=O)n(-c2ccc(F)cc2)c1=O` [Example 3], the figures for the IC50 on HIS-AXL 473-End and on GST-MERTK 578-872 were 1730 nM and 59 nM, respectively.
In the case of `Cc1ccc(Nc2cc(Oc3ccc(NC(=O)c4cn(C(C)C)c(=O)n(-c5ccc(F)cc5)c4=O)cc3F)ccn2)nc1` [Example 4], the IC50 was found to be 4.4 nM on HIS-AXL 473-End and 32 nM at GST-MERTK 578-872.
With `CCc1ccc(Nc2cc(Oc3ccc(NC(=O)c4cn(C(C)C)c(=O)n(-c5ccc(F)cc5)c4=O)cc3F)ccn2)nc1` [Example 5], the IC50 is 24 nM at HIS-AXL 473-End and 56 nM at GST-MERTK 578-872.
As for `Cc1cnc(Nc2cc(Oc3ccc(NC(=O)c4cn(C(C)C)c(=O)n(-c5ccc(F)cc5)c4=O)cc3F)ccn2)cc1C` [Example 6], the IC50 is 7.9 nM at HIS-AXL 473-End and 37 nM at GST-MERTK 578-872.
As to `Cc1ccc(Nc2cc(Oc3ccc(NC(=O)c4cn(C(C)C)c(=O)n(-c5ccc(F)cc5)c4=O)cc3F)ccn2)nc1Cl` [Example 7], the IC50 on HIS-AXL 473-End came to 21 nM; at GST-MERTK 578-872 it was 82 nM.
Consider `CC(C)n1cc(C(=O)Nc2ccc(Oc3ccnc(Nc4cccc(C(F)(F)F)n4)c3)c(F)c2)c(=O)n(-c2ccc(F)cc2)c1=O` [Example 9], for which the IC50 stood at 29 nM on HIS-AXL 473-End and 16 nM at GST-MERTK 578-872.
Regarding `CC(C)n1cc(C(=O)Nc2ccc(Oc3ccnc(Nc4ccc(C(F)F)cn4)c3)c(F)c2)c(=O)n(-c2ccc(F)cc2)c1=O` [Example 10], the IC50 on HIS-AXL 473-End worked out at 15 nM; on GST-MERTK 578-872, 43 nM.
Turning to `CC(C)n1cc(C(=O)Nc2ccc(Oc3ccnc(Nc4ccc(OC(F)(F)F)cn4)c3)c(F)c2)c(=O)n(-c2ccc(F)cc2)c1=O` [Example 11], the IC50 stood at 53 nM at HIS-AXL 473-End and 128 nM at GST-MERTK 578-872.
The matching figures for `CC(C)n1cc(C(=O)Nc2ccc(Oc3ccnc(Nc4ncc(C(F)(F)F)cc4F)c3)c(F)c2)c(=O)n(-c2ccc(F)cc2)c1=O` [Example 12]: 55 nM and 228 nM.
For the compound `C[C@H](CO)n1cc(C(=O)Nc2ccc(Oc3ccnc(Nc4ccc(S(=O)(=O)N(C)C)cn4)c3)c(F)c2)c(=O)n(-c2ccc(F)cc2)c1=O` [Example 55], on GST-MERTK 578-872, the IC50 is 6.7 nM.
For `C[C@H](CO)n1cc(C(=O)Nc2ccc(Oc3ccnc(Nc4ccc(S(=O)(=O)N(C)C)cn4)c3)c(F)c2)c(=O)n(-c2ccc(F)cc2)c1=O` [Example 56], the IC50 at GST-MERTK 578-872 was determined as 17 nM.
Still for that read-out and setting: next, `CC(C)NC(=O)c1ccc(Nc2cc(Oc3ccc(NC(=O)c4cn(C(C)C)c(=O)n(-c5ccc(F)cc5)c4=O)cc3F)ccn2)nc1` [Example 94]: 3.5 nM.
Take `CC(C)n1cc(C(=O)Nc2ccc(Oc3ccnc(Nc4ccnc(N5CCCC5)n4)c3)c(F)c2)c(=O)n(CC2CC2)c1=O` [Example 110]: the IC50 on GST-MERTK 578-872 is 1.6 nM.
With `CC(C)n1cc(C(=O)Nc2ccc(Oc3ccnc(Nc4ccnc(N5CCCC5)n4)c3)c(F)c2)c(=O)n(CC2CCCCC2)c1=O` [Example 111], on GST-MERTK 578-872, the IC50 worked out at 14 nM.
For `COC(=O)N1CCN(c2nc(Nc3cc(Oc4ccc(NC(=O)c5cn(C(C)C)c(=O)n(Cc6ccccc6)c5=O)cc4F)ccn3)ccc2C#N)CC1` [Example 130], the IC50 on GST-MERTK 578-872 was 7.1 nM.
`CC(C)n1cc(C(=O)Nc2ccc(Oc3ccnc(Nc4ccc(C#N)c(N5CCC(O)(C(F)(F)F)CC5)n4)c3)c(F)c2)c(=O)n(Cc2ccccc2)c1=O` [Example 132]: the IC50 at GST-MERTK 578-872 was 12 nM.

The record behind these values is US20230339891A1, “URACIL DERIVATIVES AS MER-AXL INHIBITORS” (BRISTOL-MYERS SQUIBB COMPANY, priority 2018, published 2023).
